This passage reports inhibition and IC50 results from ChEMBL document CHEMBL2034913, “A variant peptide of buffalo colostrum β-lactoglobulin inhibits angiotensin I-converting enzyme activity” (Eur J Med Chem, 2012).

The structures appear in SMILES notation. Peptide text beside a SMILES is read from it.

The target of test [1] is T1, Angiotensin-converting enzyme (Rattus norvegicus) (UniProt P47820).
T1 sequence (whole entry): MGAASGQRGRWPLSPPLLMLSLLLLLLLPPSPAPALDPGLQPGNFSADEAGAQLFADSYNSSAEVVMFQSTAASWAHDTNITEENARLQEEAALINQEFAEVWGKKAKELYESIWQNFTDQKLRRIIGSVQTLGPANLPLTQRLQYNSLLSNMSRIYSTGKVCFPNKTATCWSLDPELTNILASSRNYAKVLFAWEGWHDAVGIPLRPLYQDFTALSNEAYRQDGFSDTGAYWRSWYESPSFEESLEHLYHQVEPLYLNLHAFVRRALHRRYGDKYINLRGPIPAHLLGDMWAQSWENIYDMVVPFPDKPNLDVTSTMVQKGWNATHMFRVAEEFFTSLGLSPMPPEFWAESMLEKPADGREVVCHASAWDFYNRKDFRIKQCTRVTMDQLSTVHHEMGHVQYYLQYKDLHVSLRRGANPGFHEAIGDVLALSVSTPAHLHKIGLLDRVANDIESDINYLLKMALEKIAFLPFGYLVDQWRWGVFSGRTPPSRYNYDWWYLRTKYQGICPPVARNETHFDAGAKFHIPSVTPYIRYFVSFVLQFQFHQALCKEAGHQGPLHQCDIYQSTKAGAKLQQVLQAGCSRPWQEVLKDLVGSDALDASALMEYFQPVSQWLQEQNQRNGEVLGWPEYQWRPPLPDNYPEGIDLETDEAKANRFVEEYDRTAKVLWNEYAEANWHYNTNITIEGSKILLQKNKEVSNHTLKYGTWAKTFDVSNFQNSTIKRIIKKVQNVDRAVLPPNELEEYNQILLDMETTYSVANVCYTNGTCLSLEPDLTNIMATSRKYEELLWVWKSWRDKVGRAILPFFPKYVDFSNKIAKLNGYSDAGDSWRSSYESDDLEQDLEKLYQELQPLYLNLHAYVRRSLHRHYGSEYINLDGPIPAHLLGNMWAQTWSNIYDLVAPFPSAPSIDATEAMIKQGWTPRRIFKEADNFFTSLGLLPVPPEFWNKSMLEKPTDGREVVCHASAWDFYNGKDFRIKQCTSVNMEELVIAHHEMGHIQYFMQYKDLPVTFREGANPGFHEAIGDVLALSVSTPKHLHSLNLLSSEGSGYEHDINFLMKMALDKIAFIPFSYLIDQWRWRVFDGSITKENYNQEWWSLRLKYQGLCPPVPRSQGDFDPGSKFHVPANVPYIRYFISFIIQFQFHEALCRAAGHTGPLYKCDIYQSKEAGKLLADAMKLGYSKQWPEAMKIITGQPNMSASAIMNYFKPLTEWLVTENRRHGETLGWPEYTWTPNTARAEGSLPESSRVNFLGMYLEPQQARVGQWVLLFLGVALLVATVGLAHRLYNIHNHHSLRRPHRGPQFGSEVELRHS
Description: (§1) Inhibition of ACE from rat kidney using hippuryl-histidyl-leucine as substrate after 30 mins by UV/VIS spectrophotometry.

In test [2] the target is T2, Angiotensin-converting enzyme (Rattus norvegicus, UniProt P47820).
T2 sequence (P47820 whole entry): T1 sequence (whole entry)
The description is as §1.

Consider `CC[C@H](C)[C@H](N)C(=O)N[C@H](C(=O)N[C@@H](C)C(=O)N[C@@H](CCSC)C(=O)N[C@@H](CCCCN)C(=O)O)[C@@H](C)CC` (H-IIAMK-OH), for which the inhibition result in test [1] is “Dose-dependent effect”. This compound also yielded an IC50 in test [2] of 498 µM.

As usually defined, the IC50 is the point on the concentration scale where inhibition reaches its midpoint. A lower IC50 goes with greater potency.
